# Measured values reported in patent US4087416A, “New heptapeptides and methods for their production” (Parke, Davis & Company, priority 1976, dated 1978).
# System: LRF (luteinizing hormone releasing factor) induced luteinizing hormone (LH) release
# Test: In vitro LRF antagonist test in rat anterior pituitary cell cultures
# Format: cell-based
# Text: Heptapeptides of this invention were screened for LRF antagonist activity in vitro using rat anterior pituitary cell cultures as described by Vale et. al. [Endocrinology, 91, 562 (1972)]. The inhibition of LRF (luteinizing hormone releasing factor) induced luteinizing hormone (LH) release into the culture medium is the endpoint in this in vitro bioassay.
# [1] = Molar Conc. 1×10^-7, second experiment (LRF 3.5×10^-10)
# [2] = Molar Conc. 2×10^-7, second experiment (LRF 3.5×10^-10)
# [3] = Molar Conc. 3.5×10^-7, second experiment (LRF 3.5×10^-10)
# [4] = Molar Conc. 1×10^-6, first experiment (LRF 5×10^-10)
# [5] = Molar Conc. 1×10^-7, first experiment (LRF 5×10^-10)
# [6] = Molar Conc. 1×10^-8, first experiment (LRF 5×10^-10)
# [7] = Molar Conc. 3.5×10^-7, first experiment (LRF 5×10^-10)
# [8] = Molar Conc. 3.5×10^-8, first experiment (LRF 5×10^-10)
substance,measurement,setting,value
N^α -t-Butoxycarbonyl-L-prolyl-N^im -benzyl-L-histidyl-N^im -benzyl-L-histidyl-O-benzyl-L-seryl-O-benzyl-L-tyrosyl-L-tryptophyl-D-alanine methyl ester,% LH Release Inhibition,[1],65%
same,LH Value,[1],23.32 ng/mL
same,% LH Release Inhibition,[2],58%
same,LH Value,[2],24.98 ng/mL
same,% LH Release Inhibition,[3],74%
same,LH Value,[3],20.80 ng/mL
"LRF Control: luteinizing hormone releasing factor, also referred to as luteinizing hormone releasing hormone; stimulates the secretion of luteinizing hormone (QHWSYGLRPG; Gonadoliberin-1; UniProt P01148 24-33, looked up) [reference compound]",LH Value,"LRF alone, Molar Conc. 3.5×10^-10, second experiment",40.01 ng/mL
same,LH Value,"LRF alone, Molar Conc. 5×10^-10, first experiment",38.48 ng/mL
N^α -t-Butoxycarbonyl-L-prolyl-N^im -benzyl-L-histidyl-N^im -benzyl L-histidyl-O-benzyl-L-seryl-O-benzyl-L-tyrosyl-L-tryptophyl-D-alanine N-ethylamide,% LH Release Inhibition,[4],101%
same,LH Value,[4],11.36 ng/mL
same,% LH Release Inhibition,[5],77%
same,LH Value,[5],17.83 ng/mL
same,% LH Release Inhibition,[6],24%
same,LH Value,[6],31.92 ng/mL
same,% LH Release Inhibition,[7],99%
same,LH Value,[7],11.90 ng/mL
same,% LH Release Inhibition,[8],55%
same,LH Value,[8],23.65 ng/mL
